Data from patent US20020131996A1, “Methods and compositions for blocking microbial adherence to eukaryotic cells” (priority 2001, published 2002).

Experiments:
Type in all cases: in vivo, human
[1] = system: bacteria adherent to gingival epithelial cells; test: Microbial adherence to gingival epithelial cells in volunteers with low grade gingivitis (Giemsa-stained gingival scrapings)
From the text: In this example isoleucine was applied as a pure crystalline powder directly to the gums. The individuals were normal human volunteers. Each individual had clinically evident low grade gingivitis, as determined by the puffiness of the gingival margin and a history of some bleeding during normal dental brushing. Oral health care comprised twice daily flossing and dental brushing with a non-medicated toothpaste. No oral antiseptic was used. The individuals were not taking antibiotics. Isoleucine was applied by application of powder on the fingertip to the outer and inner gum margins of the upper and lower jaws. The entirety of the gingival surface was covered manually, twice daily. The AM application was performed following breakfast, immediately after brushing. The PM application was conducted prior to retiring for sleep.
Gingival surface was gently scrapped with the side of a rectangular glass cover slip and the material described was applied to a glass microscope slide and air-dried. The slide was stained in concentrated Giemsa stain for 1 min, then destained in water for 5 min. The slide was then air-dried and mounted with a cover slip cemented with Permount. Slides were examined by light microscopy at 100×and 400×magnification. Under these staining conditions bacteria were clearly visualized as dark blue particles against the pale gray epithelial cells.
Gingival scrapings were taken in the morning prior to normal oral care and prior to eating. Prior to scraping, the subject rinsed the mouth with a cup of water to wash free particulate matter, unattached cells, and bacteria.
Scrapings were taken 3 days and 1 day prior to isoleucine administration and 1, 3, 5, and 7 days during isoleucine application. […] The bacteria adherent were represented by several different species, distinguished by morphology. […] At least 200 bacteria were counted on the average on each cell.

[2] = system: irritable bowel syndrome (IBS); test: Amelioration of irritable bowel syndrome with isoleucine in yogurt
Description: In this example isoleucine was administered to individuals who experienced irritable bowel syndrome (IBS). IBS is a loosely defined condition associated with bowel discomfort including abdominal bloating, nausea, pain, and a sense of incomplete bowel movements. The etiology underlying IBS is unknown. It is our hypothesis that IBS results from adherence of certain “pathogenic” commensal organisms to the epithelial lining of certain segments of the GI tract, resulting in disturbance of normal host-bacteria relationships. […] Two women, each in their mid-50's, presented with a history of IBS of over 20 years, in each case. In each, IBS was characterized by a sense of bloating experienced after eating cooked or raw vegetables, fruits, and meat. Each individual experienced urgency to move her bowels several times a day to an extent that often awakened the individuals from sleep. Bloating was accompanied by abdominal discomfort, described as mild cramps. Individuals felt “gassy” most of the day. Each individual was given isoleucine, 1 tsp, twice a day, each dose mixed in ½cup of yogurt. The yogurt was included to promote reinoculation of the GI tract with probiotic “good” bacteria. In each case, it was known from previous experience that yogurt itself had little effect on the IBS experienced by these individuals. Within 2 days of isoleucine administration, bloating, urgency to defecate, and gassiness had disappeared. Both individuals described the state of their bowel function as “normal”, for the first time in 20 years. […] Each was then withdrawn from isoleucine, and provided yogurt unsupplemented with isoleucine. Within about 2 days both women recorded a reappearance of the former symptoms of IBS.

[3] = system: infectious diarrhea (diarrheal agent not known); test: Treatment of infectious diarrhea with oral isoleucine solution
Description: In this example isoleucine was administered to treat infectious diarrhea. In this example three individuals were naturally innoculated by a common agent. The nature of the diarrheal agent is not known. The duration of diarrhea was consistent with an infectious etiology. Isoleucine was utilized based on the hypothesis that reduction in microbial adherence would likely limit the continued re-infection of the gut wall by the agent, and/or prevent attachment of opportunistic commensal organisms.
Three members of a family traveling in the Middle East (MZ, BZ, JZ) contracted watery diarrhea, associated with food intolerance, following a meal they shared at a restaurant. Each individual had been in excellent health without prior history of GI complaints. All were unmedicated, including aspirin or antihistamines. […] Diarrhea was watery, without gross blood, minimal mucous, slight fever with chills, no nausea, and persistence of hunger. Peristalsis was vigorous and increased by ingestion of food. Each individual was placed on a diet restricted to clear liquids (juices and soda), digestible carbohydrates (bread, rice, candy). No medications were administered.
Six days after ingestion of the diarrheal agent, one individual was begun on oral isoleucine (ILE) therapy, while the other two continued on restricted diets. ILE (#E-2025 Bachem, lot 511191) was dissolved in distilled water to 0.001%. One glass of ILE solution (about 250 ml) was consumed every several hours. A total of about 4 liters was consumed over {fraction (3 1/2)}days. A reduction in stool frequency was noted within 12 hours of initiation of ILE therapy.

[4] = system: bacterial vaginosis; test: Amelioration of bacterial vaginosis with isoleucine powder applied in the vagina
Description: In this example isoleucine was administered locally to the vagina to treat the symptoms of bacterial vaginosis. By inhibiting the adherence of bacteria to the wall of the vagina, microbial growth, inflammation, and associated signs of malodorous discharge and symptoms such as pruritis can be treated. A person, with a normal menstrual cycle and in excellent health, experienced vaginal irritation and malodorous discharge associated with their cycle, generally beginning several days prior to the onset of their period. Isoleucine was self-administered as a powder locally within the vaginal cavity digitally, twice a day. Within 2 days symptoms of vaginosis disappeared. Isoleucine therapy was continued for several days following termination of menstrual discharge, and then stopped. […] Isoleucine was again administered during the following months, cycled as described initially.

[5] = Day 1 of isoleucine powder applied to gums twice daily
[6] = Day 3 of isoleucine powder applied to gums twice daily
[7] = Day 7 of isoleucine powder applied to gums twice daily

CC[C@H](C)[C@H](N)C(=O)O [isoleucine]
Change in number of epithelial cells covered with a dense coat of bacteria ([1]; Day 1 following initiation of isoleucine application): little change
Gingival epithelial cells with 0 Bacteria [1, 5]: 0 % cells
Gingival epithelial cells with 1-10 Bacteria [1, 5]: 10 % cells
Gingival epithelial cells with 10-100 Bacteria [1, 5]: 10 % cells
Gingival epithelial cells with Contiguous lawn of bacteria [1, 5]: 80 % cells
Adherent bacteria in gingival smears ([1]; Day 3): dramatic reduction
Microcolonies (contiguous groupings of greater than 4 organisms) on cells ([1]; Day 3): Few
Neutrophils in gingival smear (sign of inflammation) ([1]; Day 3): No neutrophils were evident
Total adherent bacteria per cell (most cells) ([1]; Day 3): < 100
Cells fully covered with bacteria, of 100 cells examined ([1]; Day 3, of 100 cells examined): 40
Gingival epithelial cells with 0 Bacteria [1, 6]: 15 % cells
Gingival epithelial cells with 1-10 Bacteria [1, 6]: 15 % cells
Gingival epithelial cells with 10-100 Bacteria [1, 6]: 30 % cells
Gingival epithelial cells with Contiguous lawn of bacteria [1, 6]: 40 % cells
Breath as described by an examiner in the AM prior to oral hygiene ([1]; Day 7): free of odor
Gingival epithelial cells with 0 Bacteria [1, 7]: 80 % cells
Gingival epithelial cells with 1-10 Bacteria [1, 7]: 15 % cells
Gingival epithelial cells with 10-100 Bacteria [1, 7]: 0 % cells
Gingival epithelial cells with Contiguous lawn of bacteria (fully covered) [1, 7]: 5 % cells
Response during maintenance on isoleucine ([2]; maintained for 1 month): consistent response
State of bowel function as described by the individuals ([2]; two women on isoleucine in yogurt): normal
Time to disappearance of bloating, urgency to defecate, and gassiness ([2]; two women, isoleucine 1 tsp twice a day in 1/2 cup yogurt): ≤ 2 days
Time to reappearance of former IBS symptoms after withdrawal from isoleucine ([2]; yogurt unsupplemented with isoleucine): about 2 days
Shortening of the duration of diarrhea ([3]; MZ versus two untreated family members (BZ, JZ)): approximately three
Stools passed on the 3rd day of ILE therapy ([3]; individual, 3rd day): no stools were passed
Food tolerance ([3]; individual, by the 3rd day): cheese and chicken tolerated
Stool by day 4 following ILE treatment ([3]; individual, day 4): a normal stool was passed
Time to reduction in stool frequency after initiation of ILE therapy ([3]; one individual, 0.001% ILE in distilled water, oral, begun six days after ingestion of agent): ≤ 12 h
Symptoms following cessation of isoleucine administration ([4]; after cessation): remained symptom free
Outcome of chronic vaginosis based on symptoms and signs ([4]; cycled administration during following months): effectively cured
Time to disappearance of symptoms of vaginosis ([4]; one person, powder in the vaginal cavity twice a day): ≤ 2 days
